Data: patent US20220304978A1, “INHIBITING MESANGIAL CELL ACTIVATION” (Chinook Therapeutics, Inc., priority 2019, published 2022)

Test system: kidney tissue of g-ddY mice
Test: IPA upstream regulator analysis, g-ddY kidney RNA-seq
Conditions: 30 mg/kg/day
[1] = ligand-dependent nuclear receptor

CCCCN(CCCC)C(=O)CN1C[C@H](c2ccc3c(c2)OCO3)[C@@H](C(=O)O)[C@@H]1c1ccc(OC)cc1 [atrasentan, (2R,3R,4S)-4-(1,3-benzodioxol-5-yl)-1-[2-(dibutylamino)-2-oxoethyl]-2-(4-methoxyphenyl)pyrrolidine-3-carboxylic acid]
AHR Activation z-score [1]: 2.092 | AHR Predicted Activation State [1]: Activated | ESR1 Activation z-score [1]: −2.439 | ESR1 Predicted Activation State [1]: Inhibited | ESRRA Activation z-score [1]: 2.517 | ESRRA Predicted Activation State [1]: Activated | NR3C2 Activation z-score [1]: −2.191 | NR3C2 Predicted Activation State [1]: Inhibited | NR4A1 Activation z-score [1]: −2.488 | NR4A1 Predicted Activation State [1]: Inhibited | PPARA Activation z-score [1]: 3.182 | PPARA Predicted Activation State [1]: Activated | PPARG Activation z-score [1]: 3.581 | PPARG Predicted Activation State [1]: Activated | RXRA Activation z-score [1]: 2.96 | RXRA Predicted Activation State [1]: Activated | ARNT2 Activation z-score (transcription regulator): −2.079 | ARNT2 Predicted Activation State (transcription regulator): Inhibited | BCL6 Activation z-score (transcription regulator): 2.514 | BCL6 Predicted Activation State (transcription regulator): Activated | CBX5 Activation z-score (transcription regulator): 2.355 | CBX5 Predicted Activation State (transcription regulator): Activated | CCND1 Activation z-score (transcription regulator): −3.003 | CCND1 Predicted Activation State (transcription regulator): Inhibited | CEBPD Activation z-score (transcription regulator): −2.154 | CEBPD Predicted Activation State (transcription regulator): Inhibited | CTNNB1 Activation z-score (transcription regulator): −3.373 | CTNNB1 Predicted Activation State (transcription regulator): Inhibited | DACH1 Activation z-score (transcription regulator): 2.354 | DACH1 Predicted Activation State (transcription regulator): Activated | ECSIT Activation z-score (transcription regulator): −2.72 | ECSIT Predicted Activation State (transcription regulator): Inhibited | EGR1 Activation z-score (transcription regulator): −2.766 | EGR1 Predicted Activation State (transcription regulator): Inhibited | ELK1 Activation z-score (transcription regulator): −2.151 | ELK1 Predicted Activation State (transcription regulator): Inhibited | ERG Activation z-score (transcription regulator): −3.672 | ERG Predicted Activation State (transcription regulator): Inhibited | ETS1 Activation z-score (transcription regulator): −2.096 | ETS1 Predicted Activation State (transcription regulator): Inhibited | FEV Activation z-score (transcription regulator): −3.651 | FEV Predicted Activation State (transcription regulator): Inhibited | FOXC1 Activation z-score (transcription regulator): −2.563 | FOXC1 Predicted Activation State (transcription regulator): Inhibited | FOXC2 Activation z-score (transcription regulator): −3.361 | FOXC2 Predicted Activation State (transcription regulator): Inhibited | FOXF1 Activation z-score (transcription regulator): −2.253 | FOXF1 Predicted Activation State (transcription regulator): Inhibited | FOXL2 Activation z-score (transcription regulator): −3.108 | FOXL2 Predicted Activation State (transcription regulator): Inhibited | FOXM1 Activation z-score (transcription regulator): −2.307 | FOXM1 Predicted Activation State (transcription regulator): Inhibited | FOXO3 Activation z-score (transcription regulator): 2.338 | FOXO3 Predicted Activation State (transcription regulator): Activated | GATA1 Activation z-score (transcription regulator): −3.309 | GATA1 Predicted Activation State (transcription regulator): Inhibited | GFI1 Activation z-score (transcription regulator): 2.82 | GFI1 Predicted Activation State (transcription regulator): Activated | GPS2 Activation z-score (transcription regulator): 2.51 | GPS2 Predicted Activation State (transcription regulator): Activated | HIF1A Activation z-score (transcription regulator): −2.042 | HIF1A Predicted Activation State (transcription regulator): Inhibited | HNF1A Activation z-score (transcription regulator): 4.107 | HNF1A Predicted Activation State (transcription regulator): Activated | HNF1B Activation z-score (transcription regulator): 2.944 | HNF1B Predicted Activation State (transcription regulator): Activated | HNF4A Activation z-score (transcription regulator): 4.856 | HNF4A Predicted Activation State (transcription regulator): Activated | HOXC6 Activation z-score (transcription regulator): −2.35 | HOXC6 Predicted Activation State (transcription regulator): Inhibited | IKZF1 Activation z-score (transcription regulator): 3.472 | IKZF1 Predicted Activation State (transcription regulator): Activated | IKZF3 Activation z-score (transcription regulator): 3.165 | IKZF3 Predicted Activation State (transcription regulator): Activated | IRF7 Activation z-score (transcription regulator): −4.492 | IRF7 Predicted Activation State (transcription regulator): Inhibited | IRF8 Activation z-score (transcription regulator): −2.577 | IRF8 Predicted Activation State (transcription regulator): Inhibited | JUNB Activation z-score (transcription regulator): −3.721 | JUNB Predicted Activation State (transcription regulator): Inhibited | KDM5A Activation z-score (transcription regulator): −5.858 | KDM5A Predicted Activation State (transcription regulator): Inhibited | KLF2 Activation z-score (transcription regulator): 2.742 | KLF2 Predicted Activation State (transcription regulator): Activated | KLF4 Activation z-score (transcription regulator): −3.94 | KLF4 Predicted Activation State (transcription regulator): Inhibited | KLF15 Activation z-score (transcription regulator): 3.401 | KLF15 Predicted Activation State (transcription regulator): Activated | KMT2A Activation z-score (transcription regulator): −2.246 | KMT2A Predicted Activation State (transcription regulator): Inhibited | LHX1 Activation z-score (transcription regulator): 4.214 | LHX1 Predicted Activation State (transcription regulator): Activated | MECP2 Activation z-score (transcription regulator): −2.419 | MECP2 Predicted Activation State (transcription regulator): Inhibited | MEF2D Activation z-score (transcription regulator): −3.056 | MEF2D Predicted Activation State (transcription regulator): Inhibited | MEOX2 Activation z-score (transcription regulator): 2.54 | MEOX2 Predicted Activation State (transcription regulator): Activated | MESP1 Activation z-score (transcription regulator): −2.646 | MESP1 Predicted Activation State (transcription regulator): Inhibited | MESP2 Activation z-score (transcription regulator): −2.449 | MESP2 Predicted Activation State (transcription regulator): Inhibited | MLXIPL Activation z-score (transcription regulator): 2.871 | MLXIPL Predicted Activation State (transcription regulator): Activated | MRTFA Activation z-score (transcription regulator): −3.84 | MRTFA Predicted Activation State (transcription regulator): Inhibited | MRTFB Activation z-score (transcription regulator): −4.734 | MRTFB Predicted Activation State (transcription regulator): Inhibited | MTPN Activation z-score (transcription regulator): −2.942 | MTPN Predicted Activation State (transcription regulator): Inhibited | MYCN Activation z-score (transcription regulator): 4.584 | MYCN Predicted Activation State (transcription regulator): Activated | Msx3 Activation z-score (transcription regulator): −2 | Msx3 Predicted Activation State (transcription regulator): Inhibited | NCOA3 Activation z-score (transcription regulator): −2.143 | NCOA3 Predicted Activation State (transcription regulator): Inhibited | NEUROG1 Activation z-score (transcription regulator): 3 | NEUROG1 Predicted Activation State (transcription regulator): Activated | NFE2L2 Activation z-score (transcription regulator): 3.389 | NFE2L2 Predicted Activation State (transcription regulator): Activated | NFKB1 Activation z-score (transcription regulator): −3.239 | NFKB1 Predicted Activation State (transcription regulator): Inhibited | NRIP1 Activation z-score (transcription regulator): −2.267 | NRIP1 Predicted Activation State (transcription regulator): Inhibited | PAX7 Activation z-score (transcription regulator): −2.883 | PAX7 Predicted Activation State (transcription regulator): Inhibited | PCGF2 Activation z-score (transcription regulator): 2 | PCGF2 Predicted Activation State (transcription regulator): Activated | PDX1 Activation z-score (transcription regulator): −2.958 | PDX1 Predicted Activation State (transcription regulator): Inhibited | PITX2 Activation z-score (transcription regulator): 3.976 | PITX2 Predicted Activation State (transcription regulator): Activated | PPARGC1A Activation z-score (transcription regulator): 8.123 | PPARGC1A Predicted Activation State (transcription regulator): Activated | PPARGC1B Activation z-score (transcription regulator): 2.664 | PPARGC1B Predicted Activation State (transcription regulator): Activated | PRDM1 Activation z-score (transcription regulator): 2.281 | PRDM1 Predicted Activation State (transcription regulator): Activated | RB1 Activation z-score (transcription regulator): 4.435 | RB1 Predicted Activation State (transcription regulator): Activated | REL Activation z-score (transcription regulator): −2.451 | REL Predicted Activation State (transcription regulator): Inhibited | RELA Activation z-score (transcription regulator): −4.344 | RELA Predicted Activation State (transcription regulator): Inhibited | RUNX3 Activation z-score (transcription regulator): 3.355 | RUNX3 Predicted Activation State (transcription regulator): Activated | SMAD2 Activation z-score (transcription regulator): −2.323 | SMAD2 Predicted Activation State (transcription regulator): Inhibited | SMAD3 Activation z-score (transcription regulator): −2.952 | SMAD3 Predicted Activation State (transcription regulator): Inhibited | SMAD4 Activation z-score (transcription regulator): −2.417 | SMAD4 Predicted Activation State (transcription regulator): Inhibited | SMAD7 Activation z-score (transcription regulator): 3.504 | SMAD7 Predicted Activation State (transcription regulator): Activated | SMARCA4 Activation z-score (transcription regulator): −3.211 | SMARCA4 Predicted Activation State (transcription regulator): Inhibited | SMYD1 Activation z-score (transcription regulator): 2.213 | SMYD1 Predicted Activation State (transcription regulator): Activated | SNAI1 Activation z-score (transcription regulator): −2.699 | SNAI1 Predicted Activation State (transcription regulator): Inhibited | SOX4 Activation z-score (transcription regulator): −2.397 | SOX4 Predicted Activation State (transcription regulator): Inhibited | SP1 Activation z-score (transcription regulator): −2.444 | SP1 Predicted Activation State (transcription regulator): Inhibited | SPDEF Activation z-score (transcription regulator): 4.415 | SPDEF Predicted Activation State (transcription regulator): Activated | SPI1 Activation z-score (transcription regulator): −3.51 | SPI1 Predicted Activation State (transcription regulator): Inhibited | SPIB Activation z-score (transcription regulator): −2.933 | SPIB Predicted Activation State (transcription regulator): Inhibited | SPZ1 Activation z-score (transcription regulator): −2.022 | SPZ1 Predicted Activation State (transcription regulator): Inhibited | SREBF2 Activation z-score (transcription regulator): 2.277 | SREBF2 Predicted Activation State (transcription regulator): Activated | SRF Activation z-score (transcription regulator): −3.269 | SRF Predicted Activation State (transcription regulator): Inhibited | SRSF2 Activation z-score (transcription regulator): 2.328 | SRSF2 Predicted Activation State (transcription regulator): Activated | STAT1 Activation z-score (transcription regulator): −3.918 | STAT1 Predicted Activation State (transcription regulator): Inhibited | STAT3 Activation z-score (transcription regulator): −4.716 | STAT3 Predicted Activation State (transcription regulator): Inhibited | STAT4 Activation z-score (transcription regulator): −2.401 | STAT4 Predicted Activation State (transcription regulator): Inhibited | TCF4 Activation z-score (transcription regulator): −2.836 | TCF4 Predicted Activation State (transcription regulator): Inhibited | TCF7L1 Activation z-score (transcription regulator): 2.373 | TCF7L1 Predicted Activation State (transcription regulator): Activated | TEAD1 Activation z-score (transcription regulator): −3.036 | TEAD1 Predicted Activation State (transcription regulator): Inhibited | TEAD2 Activation z-score (transcription regulator): −3.153 | TEAD2 Predicted Activation State (transcription regulator): Inhibited | TEAD3 Activation z-score (transcription regulator): −3.638 | TEAD3 Predicted Activation State (transcription regulator): Inhibited | TEAD4 Activation z-score (transcription regulator): −2.143 | TEAD4 Predicted Activation State (transcription regulator): Inhibited | TFAP2C Activation z-score (transcription regulator): 2.899 | TFAP2C Predicted Activation State (transcription regulator): Activated | TFEB Activation z-score (transcription regulator): 2.587 | TFEB Predicted Activation State (transcription regulator): Activated | TP53 Activation z-score (transcription regulator): −3.365 | TP53 Predicted Activation State (transcription regulator): Inhibited | TWIST1 Activation z-score (transcription regulator): −2.987 | TWIST1 Predicted Activation State (transcription regulator): Inhibited | Tcf7 Activation z-score (transcription regulator): −3.984 | Tcf7 Predicted Activation State (transcription regulator): Inhibited | XBP1 Activation z-score (transcription regulator): 3.505 | XBP1 Predicted Activation State (transcription regulator): Activated | YAP1 Activation z-score (transcription regulator): −4.255 | YAP1 Predicted Activation State (transcription regulator): Inhibited
